{"source": "patent US20230047788A1", "about": "“COMPOSITIONS COMPRISING 5-CHOLESTEN-3, 25-DIOL, 3-SULFATE (25HC3S) OR PHARMACEUTICALLY ACCEPTABLE SALT THEREOF AND AT LEAST ONE CYCLIC OLIGOSACCHARIDE” (Virginia Commonwealth University, priority 2016, published 2023)", "assay": "Infusion compatibility of constituted 25HC3S solution with 5% dextrose, 0.9% sodium chloride and two infusion sets", "assay_type": "physicochemical", "conditions": "for Osmolality / pH / % Remaining Compared to T = 0 / Concentration / T = 0 Conc.: 5% dextrose bag", "method": "After constitution with Vehicle, the 30 mg/mL 25HC3S product was diluted into 100 mL of 5% dextrose injection, USP or 0.9% sodium chloride injection, USP, and was administered to subjects as an IV infusion ranging from a 30 mg to 150 mg 25HC3S dose. This was accomplished by adding 1.0 mL (for the 30 mg dose) or 5.0 mL (for the 150 mg dose), or any volume in between, of the 30 mg/mL 25HC3S product into a 100 mL dextrose or sodium chloride infusion bag. The entire admixture content in the infusion bag was infused into the subject over approximately 2 hours at a rate of 50 mL/hour.\nA physical and chemical compatibility study was conducted at a 30 mg, 48 mg and 300 mg 25HC3S dose in 5% dextrose and 0.9% sodium chloride infusion bags. Descriptions of the two kinds of infusion sets tested with 25HC3S product diluted in 5% dextrose and 0.9% sodium chloride are listed in Table 15. The tubing in catalog number 2H8480 infusion set was composed of polyvinylchloride (PVC), while the tubing in catalog number 2C8858 was polyethylene lined except for a short pump segment (approximately 12 inches) which was composed of PVC.\n25HC3S for Injection and Vehicle for 25HC3S for Injection, that had been stored at 2-8° C. for approximately 16 months, were used for the compatibility study. After constitution, 30 mg (1.0 mL of constituted product), 48 mg (1.6 mL of constituted product) or 300 mg (10 mL of constituted product) were added to 100 mL infusion bags of 5% dextrose and 0.9% sodium chloride, mixed thoroughly, and stored for 24 hours at room temperature and at 2-8° C. […] Taking into consideration the overfill per infusion bag and the additional volume introduced by adding the constituted 25HC3S product to each bag, the expected concentrations of 25HC3S were 0.28 mg/mL, 0.44 mg/mL, and 2.56 mg/mL in the infusion bags. Two kinds of infusion sets were then attached to the drug containing infusion bags, and the entire contents were eluted through the infusion sets at approximately 50 mL/hour at room temperature. Samples were collected from the 25HC3S prepared infusion bags at T=0 and at 24 hours, and from the total eluent passed through the infusion sets, and tested for 25HC3S concentration using HPLC. Solution visual appearance, osmolality (using method USP<785>), and pH (using method USP<791>) were also measured on the collected samples.", "key": {"[1]": {"conditions": "5% dextrose, ~0.28 mg/mL, 24 h 2-8°C then Baxter 2C8858"}, "[2]": {"conditions": "5% dextrose, ~0.28 mg/mL, 24 h 2-8°C then Baxter 2H8480"}, "[3]": {"conditions": "5% dextrose, ~0.28 mg/mL, 24 h RT then Baxter 2C8858"}, "[4]": {"conditions": "5% dextrose, ~0.28 mg/mL, 24 h RT then Baxter 2H8480"}, "[5]": {"conditions": "5% dextrose, ~0.44 mg/mL, 24 h 2-8°C then Baxter 2C8858"}, "[6]": {"conditions": "5% dextrose, ~0.44 mg/mL, 24 h 2-8°C then Baxter 2H8480"}, "[7]": {"conditions": "5% dextrose, ~0.44 mg/mL, 24 h RT then Baxter 2C8858"}, "[8]": {"conditions": "5% dextrose, ~0.44 mg/mL, 24 h RT then Baxter 2H8480"}, "[9]": {"conditions": "5% dextrose, ~2.56 mg/mL, 24 h 2-8°C then Baxter 2C8858"}, "[10]": {"conditions": "5% dextrose, ~2.56 mg/mL, 24 h 2-8°C then Baxter 2H8480"}, "[11]": {"conditions": "5% dextrose, ~2.56 mg/mL, 24 h RT then Baxter 2C8858"}, "[12]": {"conditions": "5% dextrose, ~2.56 mg/mL, 24 h RT then Baxter 2H8480"}}, "note": "Where “and” joins values, the source holds several entries; their conditions need not be identical. Equal entries are not always repeated."}
{"compound": "C[C@H](CCCC(C)(C)O)[C@H]1CC[C@H]2[C@@H]3CC=C4C[C@@H](OS(=O)(=O)[O-])CC[C@]4(C)[C@H]3CC[C@]12C.[Na+]", "note": "[25HC3S, 5-cholesten-3, 25-diol, 3-sulfate]", "values": [{"measurement": "Osmolality", "setting": "~0.28 mg/mL, 24 Hours at 2-8°C", "result": "250 mmol/kg and 253 mmol/kg"}, {"measurement": "pH", "setting": "~0.28 mg/mL, 24 Hours at 2-8°C", "result": "7.09 and 7.04"}, {"measurement": "% Remaining Compared to T = 0", "setting": "~0.28 mg/mL, 24 Hours at RT", "result": "(100.0%)"}, {"measurement": "Concentration", "setting": "~0.28 mg/mL, 24 Hours at RT", "result": "0.276 mg/mL and 0.277 mg/mL"}, {"measurement": "Osmolality", "setting": "~0.28 mg/mL, 24 Hours at RT", "result": "252 mmol/kg and 249 mmol/kg"}, {"measurement": "pH", "setting": "~0.28 mg/mL, 24 Hours at RT", "result": "7.12 and 7.05"}, {"measurement": "Osmolality", "setting": "~0.28 mg/mL, T = 0", "result": "247 mmol/kg and 250 mmol/kg and 251 mmol/kg"}, {"measurement": "T = 0 Conc.", "setting": "~0.28 mg/mL, T = 0", "result": "0.276 mg/mL and 0.277 mg/mL and 0.280 mg/mL and 0.279 mg/mL"}, {"measurement": "pH", "setting": "~0.28 mg/mL, T = 0", "result": "7.09 and 7.03 and 7.10 and 7.04"}, {"measurement": "Concentration", "setting": "~0.44 mg/mL, 24 Hours at 2-8°C", "result": "0.438 mg/mL and 0.440 mg/mL"}, {"measurement": "Osmolality", "setting": "~0.44 mg/mL, 24 Hours at 2-8°C", "result": "254 mmol/kg and 257 mmol/kg"}, {"measurement": "pH", "setting": "~0.44 mg/mL, 24 Hours at 2-8°C", "result": "6.96 and 6.93"}, {"measurement": "% Remaining Compared to T = 0", "setting": "~0.44 mg/mL, 24 Hours at RT", "result": "(100.0%)"}, {"measurement": "Concentration", "setting": "~0.44 mg/mL, 24 Hours at RT", "result": "0.447 mg/mL and 0.442 mg/mL"}, {"measurement": "Osmolality", "setting": "~0.44 mg/mL, 24 Hours at RT", "result": "256 mmol/kg and 253 mmol/kg"}, {"measurement": "pH", "setting": "~0.44 mg/mL, 24 Hours at RT", "result": "6.91 and 6.90"}, {"measurement": "Osmolality", "setting": "~0.44 mg/mL, T = 0", "result": "255 mmol/kg and 254 mmol/kg and 256 mmol/kg"}, {"measurement": "T = 0 Conc.", "setting": "~0.44 mg/mL, T = 0", "result": "0.447 mg/mL and 0.442 mg/mL and 0.439 mg/mL"}, {"measurement": "pH", "setting": "~0.44 mg/mL, T = 0", "result": "6.83 and 6.81 and 6.82 and 6.88"}, {"measurement": "Concentration", "setting": "~2.56 mg/mL, 24 Hours at 2-8°C", "result": "2.550 mg/mL and 2.530 mg/mL"}, {"measurement": "Osmolality", "setting": "~2.56 mg/mL, 24 Hours at 2-8°C", "result": "246 mmol/kg and 251 mmol/kg"}, {"measurement": "pH", "setting": "~2.56 mg/mL, 24 Hours at 2-8°C", "result": "6.11 and 6.14"}, {"measurement": "Concentration", "setting": "~2.56 mg/mL, 24 Hours at RT", "result": "2.470 mg/mL and 2.520 mg/mL"}, {"measurement": "Osmolality", "setting": "~2.56 mg/mL, 24 Hours at RT", "result": "257 mmol/kg and 250 mmol/kg"}, {"measurement": "pH", "setting": "~2.56 mg/mL, 24 Hours at RT", "result": "6.12 and 6.06"}, {"measurement": "Osmolality", "setting": "~2.56 mg/mL, T = 0", "result": "258 mmol/kg and 247 mmol/kg"}, {"measurement": "T = 0 Conc.", "setting": "~2.56 mg/mL, T = 0", "result": "2.500 mg/mL and 2.510 mg/mL and 2.530 mg/mL and 2.525 mg/mL"}, {"measurement": "pH", "setting": "~2.56 mg/mL, T = 0", "result": "6.04 and 6.12 and 6.29 and 6.26"}, {"measurement": "deviation of concentrations from initial T=0 time point", "setting": "5% dextrose, 24 hours at RT and 2-8°C and after elution through infusion sets", "result": "≤ 1.4", "unit": "%"}, {"measurement": "% Remaining after infusion set", "setting": "[1]", "result": "(100.4%)"}, {"measurement": "Concentration after infusion set", "setting": "[1]", "result": 0.280, "unit": "mg/mL"}, {"measurement": "Osmolality after infusion set", "setting": "[1]", "result": 252, "unit": "mmol/kg"}, {"measurement": "pH after infusion set", "setting": "[1]", "result": 6.99}, {"measurement": "% Remaining after infusion set", "setting": "[2]", "result": "(100.0%)"}, {"measurement": "Concentration after infusion set", "setting": "[2]", "result": 0.280, "unit": "mg/mL"}, {"measurement": "Osmolality after infusion set", "setting": "[2]", "result": 251, "unit": "mmol/kg"}, {"measurement": "pH after infusion set", "setting": "[2]", "result": 6.95}, {"measurement": "% Remaining after infusion set", "setting": "[3]", "result": "(100.0%)"}, {"measurement": "Concentration after infusion set", "setting": "[3]", "result": 0.277, "unit": "mg/mL"}, {"measurement": "Osmolality after infusion set", "setting": "[3]", "result": 252, "unit": "mmol/kg"}, {"measurement": "pH after infusion set", "setting": "[3]", "result": 7.04}, {"measurement": "% Remaining after infusion set", "setting": "[4]", "result": "(100.0%)"}, {"measurement": "Concentration after infusion set", "setting": "[4]", "result": 0.276, "unit": "mg/mL"}, {"measurement": "Osmolality after infusion set", "setting": "[4]", "result": 252, "unit": "mmol/kg"}, {"measurement": "pH after infusion set", "setting": "[4]", "result": 6.99}, {"measurement": "% Remaining after infusion set", "setting": "[5]", "result": "(100.2%)"}, {"measurement": "Concentration after infusion set", "setting": "[5]", "result": 0.440, "unit": "mg/mL"}, {"measurement": "Osmolality after infusion set", "setting": "[5]", "result": 255, "unit": "mmol/kg"}, {"measurement": "pH after infusion set", "setting": "[5]", "result": 6.93}, {"measurement": "% Remaining after infusion set", "setting": "[6]", "result": "(100.2%)"}, {"measurement": "Concentration after infusion set", "setting": "[6]", "result": 0.440, "unit": "mg/mL"}, {"measurement": "Osmolality after infusion set", "setting": "[6]", "result": 257, "unit": "mmol/kg"}, {"measurement": "pH after infusion set", "setting": "[6]", "result": 6.91}, {"measurement": "% Remaining after infusion set", "setting": "[7]", "result": "(100.0%)"}, {"measurement": "Concentration after infusion set", "setting": "[7]", "result": 0.442, "unit": "mg/mL"}, {"measurement": "Osmolality after infusion set", "setting": "[7]", "result": 253, "unit": "mmol/kg"}, {"measurement": "pH after infusion set", "setting": "[7]", "result": 6.90}, {"measurement": "% Remaining after infusion set", "setting": "[8]", "result": "(100.2%)"}, {"measurement": "Concentration after infusion set", "setting": "[8]", "result": 0.448, "unit": "mg/mL"}, {"measurement": "Osmolality after infusion set", "setting": "[8]", "result": 253, "unit": "mmol/kg"}, {"measurement": "pH after infusion set", "setting": "[8]", "result": 6.91}, {"measurement": "% Remaining after infusion set", "setting": "[9]", "result": "(100.4%)"}, {"measurement": "Concentration after infusion set", "setting": "[9]", "result": 2.535, "unit": "mg/mL"}, {"measurement": "Osmolality after infusion set", "setting": "[9]", "result": 248, "unit": "mmol/kg"}, {"measurement": "pH after infusion set", "setting": "[9]", "result": 6.10}, {"measurement": "% Remaining after infusion set", "setting": "[10]", "result": "(100.4%)"}, {"measurement": "Concentration after infusion set", "setting": "[10]", "result": 2.540, "unit": "mg/mL"}, {"measurement": "Osmolality after infusion set", "setting": "[10]", "result": 247, "unit": "mmol/kg"}, {"measurement": "pH after infusion set", "setting": "[10]", "result": 5.99}, {"measurement": "% Remaining after infusion set", "setting": "[11]", "result": "(101.4%)"}, {"measurement": "Concentration after infusion set", "setting": "[11]", "result": 2.545, "unit": "mg/mL"}, {"measurement": "Osmolality after infusion set", "setting": "[11]", "result": 251, "unit": "mmol/kg"}, {"measurement": "pH after infusion set", "setting": "[11]", "result": 6.00}, {"measurement": "% Remaining after infusion set", "setting": "[12]", "result": "(99.2%)"}, {"measurement": "Concentration after infusion set", "setting": "[12]", "result": 2.480, "unit": "mg/mL"}, {"measurement": "Osmolality after infusion set", "setting": "[12]", "result": 261, "unit": "mmol/kg"}, {"measurement": "pH after infusion set", "setting": "[12]", "result": 6.01}, {"measurement": "solution appearance", "setting": "dextrose and sodium chloride, all three concentrations, after 24 hours in bags and after elution", "result": "clear and colorless solutions"}, {"measurement": "decrease of pH over 24 hours in the infusion bags", "setting": "sodium chloride, approximately 0.28 mg/mL 25HC3S", "result": "~0.5", "unit": "pH unit"}]}
